Columns and labels:
ERα = target: T1, ERα (Homo sapiens, UniProt P03372); experiment: ER Degradation Determination by Western Blot; assay type: cell-based; conditions: MCF-7 cells, 10 μM, 18-24 hours
T1 construct: endogenous in cells; host or cells: MCF-7
T1 sequence (P03372 1-595): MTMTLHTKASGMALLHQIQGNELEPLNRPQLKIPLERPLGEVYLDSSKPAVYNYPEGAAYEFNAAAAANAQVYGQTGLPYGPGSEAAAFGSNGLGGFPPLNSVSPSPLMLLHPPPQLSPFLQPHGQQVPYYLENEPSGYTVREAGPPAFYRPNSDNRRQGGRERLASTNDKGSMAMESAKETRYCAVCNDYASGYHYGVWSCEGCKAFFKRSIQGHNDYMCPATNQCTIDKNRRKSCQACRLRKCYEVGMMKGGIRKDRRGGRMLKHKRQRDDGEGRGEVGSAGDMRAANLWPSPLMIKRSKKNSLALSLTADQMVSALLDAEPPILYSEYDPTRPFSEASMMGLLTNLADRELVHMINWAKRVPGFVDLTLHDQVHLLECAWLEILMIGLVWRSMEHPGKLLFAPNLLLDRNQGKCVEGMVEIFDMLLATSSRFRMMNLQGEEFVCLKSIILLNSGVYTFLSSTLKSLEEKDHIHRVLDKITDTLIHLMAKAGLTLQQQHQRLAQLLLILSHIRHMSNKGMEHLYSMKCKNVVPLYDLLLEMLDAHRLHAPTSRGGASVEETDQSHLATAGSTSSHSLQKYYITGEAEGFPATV
Experimental: ER Degradation Determination by Western Blot
MCF-7 cells are plated at 0.3 million cells/mL (3 mL/well) in 6-well plates in experiment media and incubated at 37° C., 5% CO2 for […]. Next day, 10× solution of compounds are made in DMSO and added the solution to the cells to achieve a final concentration of 10 μM. A DMSO control is included to enable a determination of the relative efficacy of test compounds. Fulvestrant is used as a positive control for ER-alpha degradation, and 4-OH tamoxifen as a control for receptor stabilization. After incubating cells with compounds for 18-24 hours, cell lysates are prepared (2× Cell lysis buffer:100 mM Tris, pH 8, 300 mM NaCl, 2% NP40, 1% Na deoxycholate, 0.04% SDS, 2 mM EDTA) and mixed thoroughly and incubated on ice. The protein concentration is quantified using BCA kit. […] The gel was then transferred onto a nitrocellulose membrane. […] GAPDH protein was used as an internal control.

MCF7 = experiment: Breast Cancer Cell Proliferation Assay (MCF-7); assay type: cell-based; conditions: Homo sapiens, 120 h; MCF7 cells, 5 days of compound exposure, Cell Titer-Glo
Experimental: Breast Cancer Cell Proliferation Assay (MCF-7)
MCF7 was expanded and maintained in the medium (Phenol red free DMEM/F12 (Hyclone SH30272.01) NEAA (Gibco11140-050) Na-pyruvate (Gibco 11360-070) and Re-stripped Charcoal stripped FBS (Gemini 100-119)). The cells were adjusted to a concentration of 3,000 cells per mL in the above media, and the cells were incubated (37° C., 5% CO2). The following day a 10 point, serial dilution of compounds was added to the cells at a final concentration ranging from 10-0.000005 μM for test compounds (17β-estradiol was used as a control). Additional cells were plated in 30 wells to serve as the day 1 (pretreatment) comparison. After 5 days of compound exposure, Cell Titer-Glo reagent was added to the cells and the relative luminescence units (RLUs) of each well was determined. Cell Titer-Glo was also added to 32 μL of medium without cells to obtain a background value. The plates were allowed to incubate at room temperature for 10 minutes to stabilize luminescent signal and the luminescence signal was recorded with EnSpire. The relative increase in cell number of each sample is determined as follows: (RLU sample-RLU background/RLU estrogen only treated cells-RLU background)×100=% inhibition.

[1] = Pharmacokinetic Determination (Rat PK); assay type: in vivo; conditions: plasma, female SD rats
Experimental: Example D Pharmacokinetic Determination
Grouping female SD rats weighing 200-300 g randomly to two groups; one group was administered with test compound at a dose of 3.0 mg/kg by intravenous injection, the other group was administered with test compound at a dose of 10.0 mg/kg by oral. The formulation for IV groups is DMSO/PEG400/150 mM glycine (pH 9) (5/10/85) and the formulation for PO groups is PEG400/PVP/Tween 80/0.5% CMC in water (9/0.5/0.5/90). After administering, blood samples of intravenous injection group were collected at time points of predose, 0.0833, 0.25, 0.5, 1, 2, 4, 8, 12 and 24 h; blood samples of oral group were collected at time points of predose, 0.25, 0.5, 1, 2, 4, 8, 12, and 24 h. Standard curve was plotted based on concentrations of the samples in a suitable range, the concentrations of test compounds in plasma samples were determined by using LC-MS/MS. Pharmacokinetic parameters were calculated according to drug concentration-time curve using a noncompartmental method by WinNonLin (Phoenix™, version 6.1) or other similar software.

Structure (SMILES)	IC50 (MCF7)	also measured
C[C@@H]1Cc2c([nH]c3ccccc23)[C@@H](c2c(F)cc(/C=C/C(=O)O)cc2F)N1C12CC(C(F)(F)F)(C1)C2 (single isomer, unassigned) [Example 4A]	25 to 250 nM	ERα % degradation (ERα): A (A = ERα % degradation ≥80%)
C[C@@H]1Cc2c([nH]c3ccccc23)[C@@H](c2c(F)cc(/C=C/C(=O)O)cc2F)N1C1CC(F)(F)C1 (single isomer, unassigned) [Example 9A]	25 to 250 nM	ERα % degradation (ERα): A (A = ERα % degradation ≥80%)
C[C@H]1Cc2c([nH]c3ccc(O)cc23)[C@H](c2c(F)cc(/C=C/C(=O)O)cc2F)N1CC(C)(C)F (single isomer, unassigned) [Example 13A]	25 to 250 nM	–
C[C@@H]1Cc2c([nH]c3ccc(O)cc23)[C@@H](c2c(F)cc(/C=C/C(=O)O)cc2F)N1CC(C)(C)F (single isomer, unassigned) [Example 13B]	≤ 25 nM	ERα % degradation (ERα): B (B = ERα % degradation <80%)
CC[C@@H]1Cc2c([nH]c3ccccc23)[C@@H](c2c(F)cc(/C=C/C(=O)O)cc2F)N1[C@H]1CCOC1 (single isomer, unassigned) [Example 23A]	≤ 25 nM	–
CC[C@@H]1Cc2c([nH]c3ccccc23)[C@@H](c2c(F)cc(/C=C/C(=O)O)cc2F)N1[C@@H]1CCOC1 (single isomer, unassigned) [Example 23B]	25 to 250 nM	–
CC[C@@H]1Cc2c([nH]c3ccccc23)[C@@H](c2c(F)cc(/C=C/C(=O)O)cc2F)N1C12CC(C1)C2 (single isomer, unassigned) [Example 25A]	≥ 250 nM	–
CC[C@H]1Cc2c([nH]c3ccccc23)[C@H](c2c(F)cc(/C=C/C(=O)O)cc2F)N1C12CC(C1)C2 (single isomer, unassigned) [Example 25B]	≤ 25 nM	–
CC/C(=C(/c1ccc(/C=C/C(=O)O)cc1)c1ccc2[nH]ncc2c1)c1ccc(F)cc1Cl [ARN810, reference compound]	≤ 25 nM	AUC(0-inf) ([1]; IV, 3.0 mg/kg): 5.9 µM·h; clearance ([1]; IV, 3.0 mg/kg): 19 mL/min/kg; half-life ([1]; IV, 3.0 mg/kg): 4.7 h; Vd ([1]; IV, 3.0 mg/kg, read-out: Vdss): 1.2 L/kg; bioavailability ([1]; PO 10.0 mg/kg vs IV 3.0 mg/kg): 117%; AUC(0-inf) ([1]; PO, 10.0 mg/kg): 23 µM·h; Cmax ([1]; PO, 10.0 mg/kg): 6.7 µM; Tmax ([1]; PO, 10.0 mg/kg): 1 h; half-life ([1]; PO, 10.0 mg/kg): 6.9 h
C[C@@H]1Cc2c([nH]c3ccccc23)[C@@H](c2c(F)cc(/C=C/C(=O)O)cc2F)N1C1CCOCC1 [Example 6A, (E)-3-(3,5-Difluoro-4-((1R,3R)-3-methyl-2-(tetrahydro-2H-pyran-4-yl)-2,3,4,9-tetrahydro-1H-pyrido[3,4-b]indol-1-yl)phenyl)acrylic acid]	–	ERα % degradation (ERα): B (B = ERα % degradation <80%)
C[C@@H]1Cc2c([nH]c3ccccc23)[C@@H](c2c(F)cc(/C=C/C(=O)O)cc2F)N1[C@@H]1CCOC1 [Example 8B, (E)-3-(3,5-Difluoro-4-((1R,3R)-3-methyl-2-((R)-tetrahydrofuran-3-yl)-2,3,4,9-tetrahydro-1H-pyrido[3,4-b]indol-1-yl)phenyl)acrylic acid]	25 to 250 nM	ERα % degradation (ERα): B (B = ERα % degradation <80%)
C[C@@H]1Cc2c([nH]c3ccccc23)[C@H](c2c(F)cc(/C=C/C(=O)O)cc2F)N1C12CC(C1)C2 [Example 11C, (E)-3-(4-((1S,3R)-2-(Bicyclo[1.1.1]pentan-1-yl)-3-methyl-2,3,4,9-tetrahydro-1H-pyrido[3,4-b]indol-1-yl)-3,5-difluorophenyl)acrylic acid]	≥ 250 nM	–
[2H][C@@]1(c2c(F)cc(/C=C/C(=O)O)cc2F)c2[nH]c3ccccc3c2C[C@@H](C)N1C12CC(C1)C2 [Example 11D, (E)-3-(4-((1R,3R)-2-(Bicyclo[1.1.1]pentan-1-yl)-3-methyl-2,3,4,9-tetrahydro-1H-pyrido[3,4-b]indol-1-yl-1-d)-3,5-difluorophenyl)acrylic acid]	≤ 25 nM	–
C[C@@H]1Cc2c([nH]c3cc(O)ccc23)[C@@H](c2c(F)cc(/C=C/C(=O)O)cc2F)N1CC(C)(C)F [Example 15A, (E)-3-(3,5-Difluoro-4-((1R,3R)-2-(2-fluoro-2-methylpropyl)-7-hydroxy-3-methyl-2,3,4,9-tetrahydro-1H-pyrido[3,4-b]indol-1-yl)phenyl)acrylic acid]	≤ 25 nM	–
C[C@@H]1Cc2c([nH]c3ccccc23)[C@@H](c2c(F)cc(/C=C/C(=O)O)cc2F)N1CC1(F)COC1 [Example 16A, (E)-3-(3,5-Difluoro-4-((1R,3R)-2-((3-fluorooxetan-3-yl)methyl)-3-methyl-2,3,4,9-tetrahydro-1H-pyrido[3,4-b]indol-1-yl)phenyl)acrylic acid]	≤ 25 nM	–
C[C@@H]1Cc2c([nH]c3ccccc23)[C@@H](c2c(F)cc(/C=C/C(=O)O)cc2F)N1CC1COC1 [Example 17A]	25 to 250 nM	–
C[C@@H]1Cc2c([nH]c3ccccc23)[C@@H](c2c(F)cc(/C=C/C(=O)O)cc2F)N1CC1(C)COC1 [Example 18A, (E)-3-(3,5-Difluoro-4-((1R,3R)-3-methyl-2-((3-methyloxetan-3-yl)methyl)-2,3,4,9-tetrahydro-1H-pyrido[3,4-b]indol-1-yl)phenyl)acrylic acid]	≤ 25 nM	–
O=C(O)/C=C/c1cc(F)c(C2c3[nH]c4ccccc4c3C[C@@H](C(F)F)N2C2CCOC2)c(F)c1 (stereo partly drawn) [Example 19A, (E)-3-(4-((3S)-3-(Difluoromethyl)-2-(tetrahydrofuran-3-yl)-2,3,4,9-tetrahydro-1H-pyrido[3,4-b]indol-1-yl)-3,5-difluorophenyl)acrylic acid]	≤ 25 nM	–
CC1(C)Cc2c([nH]c3ccccc23)C(c2c(F)cc(/C=C/C(=O)O)cc2F)N1CC12CC(C1)C2 (stereo not shown) [Example 22, (E)-3-(4-(2-(Bicyclo[1.1.1]pentan-1-ylmethyl)-3,3-dimethyl-2,3,4,9-tetrahydro-1H-pyrido[3,4-b]indol-1-yl)-3,5-difluorophenyl)acrylic acid]	25 to 250 nM	–
CCC1Cc2c([nH]c3ccccc23)C(c2c(F)cc(/C=C/C(=O)O)cc2F)N1CC12CC(C1)C2 (stereo not shown) [Example 24, (E)-3-(4-(2-(Bicyclo[1.1.1]pentan-1-ylmethyl)-3-ethyl-2,3,4,9-tetrahydro-1H-pyrido[3,4-b]indol-1-yl)-3,5-difluorophenyl)acrylic acid]	25 to 250 nM	–
C[C@@H]1Cc2c(n(C)c3ccccc23)[C@@H](c2c(F)cc(/C=C/C(=O)O)cc2F)N1C12CC(C1)C2 [Example 26A, (E)-3-(4-((1R,3R)-2-(bicyclo[1.1.1]pentan-1-yl)-3,9-dimethyl-2,3,4,9-tetrahydro-1H-pyrido[3,4-b]indol-1-yl)-3,5-difluorophenyl)acrylic acid]	≥ 250 nM	–
